According to publication PMC3688631 (ACS medicinal chemistry letters, 2013):

How the values were obtained:
[1] = system: Akt phosphorylation in MDA-MB-468; assay: Cellular inhibition of Akt phosphorylation; assay type: cell-based; details: Homo sapiens, MDA-MB-468, read-out: inhibition of Akt phosphorylation IC50
96 kinases = assay: KinomeScan screen versus another 96 kinases; assay type: binding
PI3Kβ D862Q = PI3Kβ D862Q (Homo sapiens, UniProt P42338, D862Q); details: cited from earlier work
Chain of PI3Kβ D862Q (P42338 whole entry D862Q): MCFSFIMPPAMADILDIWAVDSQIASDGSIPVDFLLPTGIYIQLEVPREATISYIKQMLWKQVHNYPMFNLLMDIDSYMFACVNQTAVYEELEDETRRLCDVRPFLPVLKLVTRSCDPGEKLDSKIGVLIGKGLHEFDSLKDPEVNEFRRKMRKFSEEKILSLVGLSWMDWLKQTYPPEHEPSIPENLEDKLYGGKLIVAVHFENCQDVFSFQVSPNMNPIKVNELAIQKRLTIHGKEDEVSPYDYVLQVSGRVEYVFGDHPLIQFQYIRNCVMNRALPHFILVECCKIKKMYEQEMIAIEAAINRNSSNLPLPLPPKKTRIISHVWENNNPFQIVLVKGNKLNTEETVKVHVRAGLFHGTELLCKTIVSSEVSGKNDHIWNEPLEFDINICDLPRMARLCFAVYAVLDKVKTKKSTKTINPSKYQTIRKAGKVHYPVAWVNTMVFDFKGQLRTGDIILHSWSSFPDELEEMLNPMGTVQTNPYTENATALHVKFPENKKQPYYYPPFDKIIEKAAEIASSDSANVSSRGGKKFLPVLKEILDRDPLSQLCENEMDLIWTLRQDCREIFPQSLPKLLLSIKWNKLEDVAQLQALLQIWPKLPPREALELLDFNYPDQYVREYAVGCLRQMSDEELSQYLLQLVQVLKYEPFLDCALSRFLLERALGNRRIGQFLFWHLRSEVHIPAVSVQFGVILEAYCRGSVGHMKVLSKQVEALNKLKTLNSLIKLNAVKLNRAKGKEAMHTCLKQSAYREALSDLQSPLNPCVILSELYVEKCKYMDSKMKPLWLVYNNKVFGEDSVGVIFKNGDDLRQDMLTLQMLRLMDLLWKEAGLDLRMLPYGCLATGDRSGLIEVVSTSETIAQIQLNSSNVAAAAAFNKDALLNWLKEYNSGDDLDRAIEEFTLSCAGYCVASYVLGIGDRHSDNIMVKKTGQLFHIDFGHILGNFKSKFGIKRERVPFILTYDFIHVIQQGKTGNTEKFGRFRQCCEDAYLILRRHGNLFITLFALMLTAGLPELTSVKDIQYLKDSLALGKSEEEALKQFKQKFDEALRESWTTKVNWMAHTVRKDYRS
Chain of PI3Kβ D862Q (P27986 whole entry partner): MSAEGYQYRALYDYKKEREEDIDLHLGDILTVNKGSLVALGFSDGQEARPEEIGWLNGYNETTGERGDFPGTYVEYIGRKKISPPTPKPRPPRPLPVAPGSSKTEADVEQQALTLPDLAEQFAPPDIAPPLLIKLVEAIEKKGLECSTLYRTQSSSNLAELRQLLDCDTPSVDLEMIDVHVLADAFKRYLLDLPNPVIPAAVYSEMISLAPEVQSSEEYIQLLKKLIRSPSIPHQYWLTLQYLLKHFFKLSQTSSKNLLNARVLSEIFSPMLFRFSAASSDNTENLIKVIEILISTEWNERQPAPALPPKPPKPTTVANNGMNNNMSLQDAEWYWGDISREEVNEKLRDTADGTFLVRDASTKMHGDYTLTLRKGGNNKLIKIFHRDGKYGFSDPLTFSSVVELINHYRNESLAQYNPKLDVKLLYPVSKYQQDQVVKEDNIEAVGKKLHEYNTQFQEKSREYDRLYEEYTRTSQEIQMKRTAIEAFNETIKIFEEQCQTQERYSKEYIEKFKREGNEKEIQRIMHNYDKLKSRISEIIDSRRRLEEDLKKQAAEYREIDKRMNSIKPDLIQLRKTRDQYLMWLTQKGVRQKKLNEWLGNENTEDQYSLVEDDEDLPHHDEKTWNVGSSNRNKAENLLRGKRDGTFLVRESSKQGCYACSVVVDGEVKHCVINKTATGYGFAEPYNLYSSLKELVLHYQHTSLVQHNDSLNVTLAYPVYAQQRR

Row | IC50 [1] [nM] | Compound | KinomeScan binding affinity versus another 96 kinases (96 kinases) | effect of mutation D862Q in PI3Kβ on inhibition (PI3Kβ D862Q)
1 | < 10 | N[C@@H](Cc1ccccc1)C(=O)N1CCN(c2nc(N3CCOCC3)nc(-n3c(C(F)F)nc4ccccc43)n2)CC1 [Compound 21] | only the class II PI3K PI3KC2β showed binding affinity comparable to that seen for PI3Kβ | 
2 |  | Cc1cc(C(C)Nc2ccccc2)c2nc(N3CCOCC3)cc(=O)n2c1 (stereo not drawn) [TGX221] |  | unaffected
